What was measured:
Type in all cases: functional
[1] = target: T1, Tubulin (Bos taurus, UniProt Q6B856+Q862L2+Q862F3); experiment: Inhibition of tubulin polymerization activity using homogenous bovine brain tubulin at 37 degree C
[2] = Selectivity ratio expressed as temperature dependence at 45 Degree C to that of 30 Degree C in bovine brain tubulin
[3] = system: PC-3; experiment: In vitro growth inhibitory activity against human neoplastic PC3 cell line
[4] = target: T1, Tubulin; experiment: Inhibition of tubulin polymerization activity using homogenous bovine brain tubulin at 45 degree C
[5] = target: T1, Tubulin; experiment: Inhibition of tubulin polymerization activity using homogenous bovine brain tubulin at 30 degree C
[6] = system: NCI-H520; experiment: In vitro growth inhibitory activity against human neoplastic NCI-H520 cell line
[7] = system: MCF7; experiment: In vitro growth inhibitory activity against human neoplastic MCF-7 cell line

SMILES: COc1ccc(C2CCc3cc(OC)c(OC)c(OC)c32)cc1O (centres undefined)
- IC50 [1]: 10.9 µM
- Selectivity [2]: 1.1
- GI50 [3]: 0.5 µM
- IC50 [4]: 10.9 µM
- IC50 [5]: 11.8 µM
- GI50 [6]: 0.1 µM
- GI50 [7]: 10 µM

SMILES: COc1cc2c(c(OC)c1OC)C(c1cccc(N)c(=O)c1)CC2 (centres undefined)
- IC50 [1]: 23.6 µM
- Selectivity [2]: 1.25
- IC50 [4]: 23.6 µM
- IC50 [5]: 29.5 µM

SMILES: COc1cc2c(c(OC)c1OC)-c1ccc(OC)c(=O)cc1[C@@H](NC(C)=O)CC2 [COLCHICINE]
- GI50 [3]: <0.05 µM
- GI50 [6]: <0.05 µM
- GI50 [7]: <0.05 µM

SMILES: COc1cc2c(c(OC)c1OC)C(c1cccc(Br)c(=O)c1)CC2 (centres undefined)
- IC50 [1]: 28.1 µM
- Selectivity [2]: 1.45
- IC50 [4]: 22 µM
- IC50 [5]: 32 µM

SMILES: COc1cc(C2CCc3cc(OC)c(OC)c(OC)c32)ccc1O (centres undefined)
- IC50 [1]: 46.4 µM
- Selectivity [2]: 0
- GI50 [3]: >100 µM
- IC50 [4]: 46.4 µM
- IC50 [5]: 46.4 µM
- GI50 [6]: >100 µM
- GI50 [7]: >100 µM

SMILES: COc1cc2c(c(OC)c1OC)C(c1cccc(OC)c(=O)c1)CC2 (centres undefined)
- IC50 [1]: 19 µM
- Selectivity [2]: 5.7
- GI50 [3]: 5.2 µM
- IC50 [4]: 19 µM
- IC50 [5]: 108 µM
- GI50 [6]: 5.4 µM
- GI50 [7]: 75 µM

SMILES: CCOc1cccc(C2CCc3cc(OC)c(OC)c(OC)c32)cc1=O (centres undefined)
- IC50 [1]: 18.2 µM
- Selectivity [2]: 1.7
- IC50 [4]: 18 µM
- IC50 [5]: 26.2 µM

SMILES: CNc1cccc(C2CCc3cc(OC)c(OC)c(OC)c32)cc1=O (centres undefined)
- IC50 [1]: 23.5 µM
- Selectivity [2]: 1.3
- IC50 [5]: 30.6 µM
